Reference: patent US7214699B2, “Indazole derivatives as CRF antagonists” (Roche Palo Alto LLC, priority 2002, dated 2007)
Counter-ions that a name gives are not always drawn.

Test system: not given
Assay: not given
Details: not given

Row | Compound | melting point
1 | CCC=C(CCC)c1c2cccc(-c3ccc(Cl)cc3Cl)c2nn1C (as salt: hydrochloride) [Ia, 7-(2,4-Dichloro-phenyl)-2-methyl-3-(1-propyl-but-1-enyl)-2H-indazole hydrochloride] | 147 to 152 °C
2 | CCCN(Cc1c2cccc(-c3c(C)cc(C)cc3C)c2nn1C)CC1CC1.Cl | 125.8 to 133.5 °C
3 | CCC=C(CCC)c1c2cccc(-c3c(C)cc(C)cc3C)c2nn1C.Cl [Ib, 2-Methyl-3-(1-propyl-but-1-enyl)-7-(2,4,6-trimethyl-phenyl)-2H-indazole hydrochloride] | 132 to 135 °C
4 | Cn1nc2c(-c3ccc(Cl)cc3Cl)cccc2c1C(=O)N1CCOCC1 [Iae, [7-(2,4-Dichloro-phenyl)-2-methyl-2H-indazol-3-yl]-morpholin-4-yl-methanone] | 197 to 200.8 °C
5 | CCCN(CC1CC1)C(=O)c1c2cccc(-c3c(C)cc(C)cc3C)c2nn1C [Im, 2-Methyl-7-(2,4,6-trimethyl-phenyl)-2H-indazole-3-carboxylic acid cyclopropylmethyl-propyl-amide] | 112.5 to 113.8 °C
6 | Cn1nc2c(-c3ccc(Cl)cc3Cl)cccc2c1CN1CCOCC1 [Iag, 7-(2,4-Dichloro-phenyl)-2-methyl-3-morpholin-4-ylmethyl-2H-indazole] | 152.3 to 154.8 °C

The next lines start with the values.

Row | melting point | Compound
7 | 84.7 to 89.4 °C | CC/C=C(\CCC)c1c2cccc(-c3ccc(OC)nc3C)c2nn1C.Cl
8 | 142 to 146 °C | CCN(CCOC)c1c2cccc(-c3c(C)cc(C)cc3C)c2nn1C.Cl
9 | 153 to 157 °C | CCCN(CCC)c1c2cccc(-c3ccc(Cl)cc3Cl)c2nn1C (as salt: hydrochloride) [[7-(2,4-Dichloro-phenyl)-2-methyl-2H-indazol-3-yl]-dipropyl-amine]
10 | 62 to 64.3 °C | CCCN(CCC)c1c2cccc(-c3ccc(OC)cc3OC)c2nn1C.Cl
11 | 60 to 70 °C | CCCN(CCC)c1c2cccc(-c3ccc(OC)cc3C)c2nn1C.Cl
12 | 137 to 139 °C | CCCN(CC1CC1)c1c2cccc(-c3ccc(Cl)cc3Cl)c2nn1C.Cl
13 | 86 to 121 °C | CCCN(CCOC)c1c2cccc(-c3c(C)cc(C)cc3C)c2nn1C (as salt: hydrochloride) [Ie, (2-Methoxy-ethyl)-[2-methyl-7-(2,4,6-trimethyl-phenyl)-2H-indazol-3-yl]-propyl-amine]
14 | 140 to 142 °C | COCCN(CCOC)c1c2cccc(-c3c(C)cc(C)cc3C)c2nn1C (as salt: hydrochloride) [If, Bis-(2-methoxy-ethyl)-[2-methyl-7-(2,4,6-trimethyl-phenyl)-2H-indazol-3-yl]-amine]
15 | 154 to 158 °C | CCCN(CCC)c1c2cccc(-c3c(C)cc(C)cc3C)c2nn1C (as salt: hydrochloride) [Ic, [2-Methyl-7-(2,4,6-trimethyl-phenyl)-2H-indazol-3-yl]-dipropyl-amine]

Target: T1, hCRF1 (Homo sapiens, UniProt P34998)
T1 construct: endogenous in cells; host or cells: Human Y-79 retinoblastoma cells
T1 sequence (P34998 24-415): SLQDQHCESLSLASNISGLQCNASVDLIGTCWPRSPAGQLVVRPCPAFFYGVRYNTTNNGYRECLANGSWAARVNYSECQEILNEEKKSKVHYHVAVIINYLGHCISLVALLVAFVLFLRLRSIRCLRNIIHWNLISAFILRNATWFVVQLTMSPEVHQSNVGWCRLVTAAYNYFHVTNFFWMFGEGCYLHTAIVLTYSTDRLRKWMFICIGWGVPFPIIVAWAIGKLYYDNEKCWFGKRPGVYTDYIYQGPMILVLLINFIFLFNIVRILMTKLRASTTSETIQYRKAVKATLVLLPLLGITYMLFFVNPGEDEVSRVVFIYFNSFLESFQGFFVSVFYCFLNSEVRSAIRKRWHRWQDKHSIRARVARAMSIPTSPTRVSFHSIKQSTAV
Assay: Intracellular cAMP stimulation assay (CRF1 functional assay)
Assay type: cell-based
Details: inhibition of hCRF (30 nM)-stimulated cAMP accumulation in human Y-79 retinoblastoma cells, read-out: hCRF1 pIC50 (converted)
Method: Intracellular cAMP Stimulation Assay
Human Y-79 retinoblastoma cells are grown in RPMI 1640 medium with 15% FBS. Measures of cAMP accumulation are performed by using NEN Adenylyl Cyclase FlashPlate kit (SMP004). The cells are separated from culture medium, washed twice with PBS (150×g, 8 min), resuspended (2E+6 cells/ml) in Stimulation Buffer (provided in the kit), and then added to 96-well FlashPlates, (50,000 cells per well). Various concentrations of test compounds are incubated with the cells for 20 min prior to the addition of hCRF (30 nM). The total assay volume is 100 μl. The assay is terminated after 20 min after addition of the hCRF by addition of Detection Buffer and [^125I]cAMP. After 2 hr at room temperature the mixtures are aspirated and the bound radioactivity is measured with a Packard TopCount. The potency (IC50 values) of test compounds in inhibiting the hCRF-stimulated accumulation of cAMP is determined by nonlinear regression analyses with interactive curve-fitting procedures.
The compounds of the present invention were active in receptor binding and functional assays.

Row | IC50 | Compound
16 | 50.1 nM | CCC=C(CCC)c1c2cccc(-c3c(C)cc(C)cc3C)c2nn1C.Cl [Ib, 2-Methyl-3-(1-propyl-but-1-enyl)-7-(2,4,6-trimethyl-phenyl)-2H-indazole hydrochloride]
17 | 50.1 nM | CCCN(CC1CC1)c1c2cccc(-c3c(C)cc(C)cc3C)c2nn1C [Ip, Cyclopropylmethyl-[2-methyl-7-(2,4,6-trimethyl-phenyl)-2H-indazol-3-yl]-propyl-amine trifluoroacetic acid salt]
18 | 63.1 nM | CCC=C(CCC)c1c2cccc(-c3ccc(Cl)cc3Cl)c2nn1C [Ia, 7-(2,4-Dichloro-phenyl)-2-methyl-3-(1-propyl-but-1-enyl)-2H-indazole hydrochloride]
19 | 79.4 nM | CCCN(CCC)c1c2cccc(-c3c(C)cc(C)cc3C)c2nn1C [Ic, [2-Methyl-7-(2,4,6-trimethyl-phenyl)-2H-indazol-3-yl]-dipropyl-amine]
20 | 79.4 nM | CCCN(Cc1cccs1)c1c2cccc(-c3c(C)cc(C)cc3C)c2nn1C [Io, [2-Methyl-7-(2,4,6-trimethyl-phenyl)-2H-indazol-3-yl]-propyl-thiophen-2-ylmethyl-amine trifluoro-acetic acid salt]
